Experimental data from the supplement of paper PMC10307832.

Columns and labels:
Test in all cases: relative viability (nuclei count vs DMSO), 5 days (fraction); higher = more cells survive
[1] = compound: C1CC2=C(C1)C=C(C=C2)OC3=NC(=C4C(=N3)N(C=N4)CC5=CC=C(C=C5)C6=CC=CC=C6)N[C@@H](CC7=CC=CC=C7)CO [QS11] + CC(=O)c1c(C)c2cnc(Nc3ccc(N4CCNCC4)cn3)nc2n(C2CCCC2)c1=O [Palbociclib] (partner 0.5 µM)
Method in brief: (§1)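 Lung cancer cell lines in 1536-well plates were dosed by pin tool the day after seeding, either with one drug alone or with a fixed anchor-drug dose plus five library-drug doses (not always all listed) in √10 steps. After 5 days, cells were fixed and their nuclei stained in one step (final 0.05% Triton X-100, 1% formaldehyde, 1 ug/ml Hoechst), then counted on 4× images. Relative viability is the nuclei count in treated wells divided by that in vehicle wells. Values are medians of duplicate plates.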

[2] = compound: C1CC2=C(C1)C=C(C=C2)OC3=NC(=C4C(=N3)N(C=N4)CC5=CC=C(C=C5)C6=CC=CC=C6)N[C@@H](CC7=CC=CC=C7)CO [QS11] + CS(=O)(=O)N1CCN(Cc2cc3nc(-c4cccc5[nH]ncc45)nc(N4CCOCC4)c3s2)CC1 [Pictilisib] (partner 1 µM)
Method in brief: as §1

[3] = compound: CC1=C(C=C(C=C1)NC(=O)C2=CC(=CC=C2)C(C)(C)C#N)NC3=CC4=C(C=C3)N=CN(C4=O)C [AZ628] + CS(=O)(=O)CCNCc1ccc(-c2ccc3ncnc(Nc4ccc(OCc5cccc(F)c5)c(Cl)c4)c3c2)o1 [Lapatinib] (partner 2 µM)
Method in brief: as §1

[4] = compound: CC1=C(C=C(C=C1)NC(=O)C2=CC(=CC=C2)C(C)(C)C#N)NC3=CC4=C(C=C3)N=CN(C4=O)C [AZ628] + O=C(c1cc(Cc2n[nH]c(=O)c3ccccc23)ccc1F)N1CCN(C(=O)C2CC2)CC1 [Olaparib] (partner 8 µM)
Method in brief: as §1

Cell Line	relative viability ([1]; first compound 0.08 µM)	relative viability ([1]; first compound 0.253 µM)	relative viability ([1]; first compound 0.8 µM)	relative viability ([1]; first compound 2.53 µM)	relative viability ([1]; first compound 8 µM)	relative viability ([2]; first compound 0.08 µM)	relative viability ([2]; first compound 0.253 µM)	relative viability ([2]; first compound 0.8 µM)	relative viability ([2]; first compound 2.53 µM)	relative viability ([2]; first compound 8 µM)	relative viability ([3]; first compound 0.08 µM)	relative viability ([3]; first compound 0.253 µM)	relative viability ([3]; first compound 0.8 µM)	relative viability ([3]; first compound 2.53 µM)	relative viability ([3]; first compound 8 µM)	relative viability ([4]; first compound 0.08 µM)	relative viability ([4]; first compound 0.253 µM)	relative viability ([4]; first compound 0.8 µM)	relative viability ([4]; first compound 2.53 µM)	relative viability ([4]; first compound 8 µM)
COR-L 105	0.423	0.437	0.417	0.352	0.442	0.346	0.359	0.34	0.372	0.347	0.413	0.391	0.366	0.32	0.4	0.754	0.83	0.704	0.684	0.816
BEN	0.479	0.481	0.501	0.52	0.502	0.554	0.641	0.529	0.524	0.705	0.775	0.554	0.661	0.815	0.545	1.26	0.912	0.995	1.03	1.02
NCI-H520	0.211	0.208	0.268	0.208	0.204	–	0.343	0.27	0.321	0.275	0.901	0.857	0.743	0.778	0.766	0.358	0.32	0.325	0.396	0.23
NCI-H2405	0.544	0.541	0.488	0.536	0.502	0.393	0.412	0.468	0.756	0.567	0.733	0.59	0.487	0.487	0.515	0.661	0.792	0.572	0.646	0.555
NCI-H2087	0.249	0.27	0.247	0.2	0.197	0.799	0.836	0.926	1.03	1.13	0.795	0.799	0.636	0.865	0.41	0.446	0.491	0.383	0.537	0.181
NCI-H460	0.426	0.093	0.0461	0.0817	0.0731	0.301	0.351	0.532	0.352	0.473	1.08	0.868	0.853	0.87	0.559	0.543	0.397	0.342	0.414	0.371
NCI-H1650	0.354	0.251	0.271	0.355	0.245	0.671	0.458	0.584	0.584	0.524	1.24	0.795	0.79	0.498	0.68	0.839	0.866	0.847	0.766	0.909
